# In US10292390B2, “Inhibition and dispersion of bacterial biofilms with 2-aminobenzimidazole derivatives” (WISCONSIN ALUMNI RESEARCH FOUNDATION, priority 2011, dated 2019):
# Where two headings read alike, the source gives them in different places.
# What was measured:
# [1] = test system: P. aeruginosa PAO1 biofilm; assay: crystal violet static biofilm inhibition assay; format: cell-based, Pseudomonas aeruginosa; settings: for IC50: Pseudomonas aeruginosa, PAO1; for inhibition of biofilm growth: at 100 micro M, 24 h; for anti-biofilm (biofilm inhibitory) activity in words: initial screen at 500 μM, 12 and 24 h
# Protocol: Stilbenes 1, 2, and 4a-b were tested for inhibition of biofilm formation in a wild-type P. aeruginosa strain (PAO1) at 500 μM using standard static biofilm growth assays.
# Biofilms were grown in a modified M9 minimal media in 96-well microtiter plates, and crystal violet staining of the surface-associated biomass was used to quantify biofilm growth at 12 and 24 h (see The Examples).
# A modified version of the widely used crystal violet (CV) microtiter plate biofilm assay, first described by Christensen et al. and later popularized by O'Toole et al., [57] was used in this study and is described in detail below.
# Compounds to be evaluated for biofilm modulatory activity were added to the assay microtiter plates by means of a “solvent evaporation” delivery. This delivery method involves preparation of compound stock solutions, addition of stocks to microtiter plates at appropriate volumes to obtain target molar quantities per well, evaporation of the solvent, and re-solubilization of the compound in the final assay medium upon inoculum addition. This delivery method was adopted to avoid the biofilm inhibitory effects observed with an “organic solvent-to-solution” delivery method (e.g., DMSO-to-media; data not shown), which is more commonly done in small molecule screens. EtOH was chosen as the solvent for solvent evaporation delivery in this study based on the chemical resistance limitations of polystyrene microtiter plates. Prior to each experiment, EtOH stock solutions of compounds being evaluated were prepared, diluted, and added to microtiter plates at varied volumes to obtain a target final concentration per well upon inoculum addition. Plates were incubated at 37° C. to evaporate EtOH and sterilized in a Baker SterilGARD III Advance Biological Safety Cabinet by UV-C germicidal irradiation for 30 min (lids removed). EtOH only was added to wells designated as “no compound” positive controls (Pos. Con.) and “no bacteria” negative controls (note, controls lacking bacteria yielded no significant staining in the CV assay (data not shown)). The outer wells were never used for test samples as evaporation and significant deviations in growth were observed; thus, outer wells were filled with sterile 18 MΩ H2O to minimize these effects.
# Bacterial samples for biofilm assessment were prepared by first streaking a freezer stock of P. aeruginosa PAO1 on an LB/agar plate and incubating at 37° C. for ˜16 h. Single colonies were selected and used to inoculate LB medium (10 mL) in a 25 mL Erlenmeyer flask. The culture was grown on an incubator-shaker (200 rpm) at 37° C. for ˜16 h to an OD600 of ˜1.0. Overnight cultures were gently decanted into falcon tubes to minimize transfer of biofilm produced during overnight growth. An inoculating culture was prepared by centrifuging an aliquot of overnight culture at 3,000 rpm for 10 min, removal of the supernatant, and then re-suspending the pellet in 95:5 M9+:LB at 10-fold the initial volume (effecting a 1-in-10 dilution; OD600 ˜0.1-0.2). Using a multi-channel pipette, this culture was added to test microtiter plates in 200 μL aliquots. The well contents were mixed using a 10 μL multi-channel pipette in a swirling motion; insoluble compound samples were noted and later excluded from the data set as needed.
# Plates were covered with the provided lid and incubated statically at 37° C. for 12-24 h. Maximal biofilm formation is obtained at 24 h, after which the amount of biofilm declines unless fresh nutrients are provided. After incubation, the OD600 was measured, and the bacterial suspension was removed by inverting and shaking the plate over a waste pan and then taping on a paper towel (process termed “dumping”). Non-biofilm associated biomaterial was removed by adding 225 μL PBS and dumping (process termed “washing”) and then repeating this washing process. Biofilm was fixed to the microtiter plates by uncovering the plate and thermally dehydrating at 37° C. […]
# [2] = test system: Gram-positive bacteria; settings: WO 2010/144686 (7); ref. 34 (18); cited from earlier work
# [3] = 12 h incubation, CV assay, read-out: 12 h biofilm IC50
# [4] = 24 h incubation, CV assay, read-out: 24 h biofilm IC50
# [5] = Table 1, crystal violet, read-out: IC50, P. aeruginosa PAO1 biofilm inhibition
"IC50 [1, 3]","IC50 [1, 4]","IC50 [1, 5]",SMILES,inhibition of biofilm growth [1],anti-biofilm (biofilm inhibitory) activity in words [1],biofilm inhibition in Gram-positive bacteria as reported [2]
13 µM,8.9 µM,–,"Nc1nc2ccc(/C=C/c3ccccc3)cc2[nH]1 [Compound 1, 6-Styryl-2-aminobenzimidazole]",56%,–,–
3.8 µM,18 µM,–,"Nc1nc(-c2ccc(/C=C/c3ccccc3)cc2)c[nH]1 [Compound 2, 4-(E)-Stilbene-2-aminoimidazole]",48%,–,–
–,–,–,"S=c1[nH]c2ccccc2[nH]1 [Compound 2-TBI, 2-thiobenzamidazole, reference compound]",–,significantly less active than 2-ABI derivatives,–
–,–,–,"C(=C\c1ccc2[nH]ccc2c1)/c1ccccc1 [Compound 4a, 5-Styryl-1H-indole]",–,"Neither indole, derivative (4a-b), however, showed appreciable anti-biofilm activity",–
–,–,–,"C(=C\c1ccc2cc[nH]c2c1)/c1ccccc1 [Compound 4b, 6-Styryl-1H-indole]",–,"Neither indole, derivative (4a-b), however, showed appreciable anti-biofilm activity",–
–,–,–,"C(=C\c1ccc2nc[nH]c2c1)/c1ccccc1 [Compound 5, 6-Styryl-1H-benzimidazole]",–,complete loss of inhibitory activity,–
–,–,–,"COc1ccc2[nH]c(=S)[nH]c2c1 [Compound 5-OMe-2-TBI, reference compound]",–,significantly less active than 2-ABI derivatives,–
–,–,–,"C(=Cc1ccccc1)c1ccccc1 [Compound 6, Stilbene, reference compound]",–,complete loss of inhibitory activity,–
–,–,–,"Nc1ncc[nH]1 [Compound 8, 2-aminoimidazole, reference compound]",–,neither 2-AI (8) nor guanidine (9) was found to display significant inhibitory activity,–
–,–,–,"N=C(N)N [Compound 9, Guanidine, reference compound]",–,neither 2-AI (8) nor guanidine (9) was found to display significant inhibitory activity,–
26.3 µM,20.3 µM,20 µM,"Nc1nc2cc(I)ccc2[nH]1 [Compound 10, 5-Iodo-2-aminobenzimidazole]",–,–,–
22 µM,22.2 µM,22 µM,"Nc1nc2cc(Br)ccc2[nH]1 [Compound 11, 5-Bromo-2-aminobenzimidazole]",–,–,–
25.7 µM,27.5 µM,28 µM,"Nc1nc2cc(Cl)ccc2[nH]1 [Compound 12, 5-Chloro-2-aminobenzimidazole]",–,–,–
30.2 µM,35.2 µM,35 µM,"Nc1nc2cc(F)ccc2[nH]1 [Compound 13, 5-Fluoro-2-aminobenzimidazole]",–,–,–
186 µM,139 µM,140 µM,"COC(=O)c1ccc2[nH]c(N)nc2c1 [Compound 15, 5-Carboxylic acid methyl ester-2-aminobenzimidazole]",–,–,–
–,–,–,"Nc1nc2cc(C(=O)O)ccc2[nH]1 [Compound 16, 5-Carboxylic acid-2-aminobenzimidazole]",–,total loss,–
199 µM,175 µM,180 µM,"N#Cc1ccc2[nH]c(N)nc2c1 [Compound 17, 5-Cyano-2-aminobenzimidazole]",–,–,–
37.6 µM,38.7 µM,39 µM,"Cc1cccc2[nH]c(N)nc12 [Compound 19, 4-Methyl-2-aminobenzimidazole]",–,–,–
27.3 µM,25.4 µM,25 µM,"Cc1ccc2[nH]c(N)nc2c1 [Compound 20, 5-Methyl-2-aminobenzimidazole]",–,–,–
73.8 µM,80.1 µM,80 µM,"COc1ccc2[nH]c(N)nc2c1 [Compound 22, 5-Methoxy-2-aminobenzimidazole]",–,–,–
54.5 µM,48.3 µM,48 µM,"Nc1nc2cc3ccccc3cc2[nH]1 [Compound 24, 2-Amino-1H-naphtho[2,3-d]imidazole]",–,–,–

SMILES,"IC50 [1, 3]","IC50 [1, 4]","IC50 [1, 5]",inhibition of biofilm growth [1],anti-biofilm (biofilm inhibitory) activity in words [1],biofilm inhibition in Gram-positive bacteria as reported [2]
"Nc1nc2cc([N+](=O)[O-])ccc2[nH]1 [Compound 18, 5-Nitro-2-aminobenzimidazole]",49.6 µM,63.1 µM,63 µM,–,–,reported to be a biofilm inhibitor in Gram-positive bacteria
